Patent US12433953B2, “Compositions and methods related to tumor activated antibodies targeting EGFR and effector cell antigens” (Janux Therapeutics, Inc., priority 2021, dated 2025)
Read-outs that look alike come from different tables or passages of the source.

Key:
[1] = molecular target: EGFR IgG binding to the EGFR antigen; assay: ELISA competitive inhibition of EGFR IgG binding to EGFR antigen; conditions: read-out: IC50 for peptide inhibition of EGFR IgG binding to EGFR antigen; Table 13
EGFR Fab = assay: ELISA binding of peptides to EGFR Fab; conditions: read-out: EC50 for peptide binding to αEGFR Fab
[2] = molecular target: EGFR Fab binding to the EGFR antigen; assay: ELISA competitive inhibition of EGFR Fab binding to EGFR antigen; conditions: for IC50: read-out: IC50 for peptide inhibition of αEGFR Fab binding to EGFR antigen; for potency as peptide mask (in words): binding and inhibition data relative to peptide-8
[3] = Table 25, peptide-8 optimization
[4] = Table 27, peptide-8 optimization

| IC50 [1] | SMILES | EC50 (EGFR Fab; Table 16) | IC50 ([2]; Table 18) | EC50 (EGFR Fab; [3]) | IC50 [2, 4] | potency as peptide mask (in words) [2] |
| --- | --- | --- | --- | --- | --- | --- |
| > 300 nM | CSCC[C@@H]1NC(=O)[C@H](Cc2c[nH]cn2)NC(=O)[C@H](CO)NC(=O)CNC(=O)[C@H](CC(=O)O)NC(=O)[C@H](Cc2c[nH]cn2)NC(=O)[C@@H](NC(=O)[C@H](CO)NC(=O)[C@@H](NC(=O)[C@@H](N)Cc2c[nH]c3ccccc23)C(C)C)CSSC[C@@H](C(=O)N[C@@H](Cc2ccccc2)C(=O)N[C@@H](Cc2c[nH]cn2)C(=O)O)NC(=O)[C@H]([C@@H](C)O)NC1=O [Peptide-4] |  |  |  |  |  |
|  | CSCC[C@@H]1NC(=O)[C@H](Cc2c[nH]cn2)NC(=O)[C@H](CO)NC(=O)[C@@H](NC(=O)[C@@H](N)CCC(=O)O)CSSC[C@@H](C(=O)N[C@@H](CO)C(=O)O)NC(=O)[C@H](CC(C)C)NC(=O)[C@@H]2CCCN2C(=O)[C@H](Cc2c[nH]c3ccccc23)NC(=O)[C@H](CCCNC(=N)N)NC(=O)[C@H]([C@@H](C)O)NC(=O)CNC(=O)[C@H](CCC(=O)O)NC1=O [Peptide-16] | 34 nM | > 300 nM |  |  |  |
|  | CC[C@H](C)[C@@H]1NC(=O)[C@@H]2CCCN2C(=O)[C@H](CCCCN)NC(=O)[C@H](C)NC(=O)[C@H]([C@@H](C)O)NC(=O)[C@H](CC(=O)O)NC(=O)[C@H](Cc2ccccc2)NC(=O)[C@H](Cc2c[nH]cn2)NC(=O)[C@H](CO)NC(=O)[C@H]([C@@H](C)O)NC(=O)[C@@H](NC(=O)[C@@H]2CCCN2)CSSC[C@@H](C(=O)N[C@@H](C)C(=O)O)NC1=O [Peptide-39] |  |  | 206 nM | 2790 nM |  |
|  | CC[C@H](C)[C@@H]1NC(=O)[C@@H]2CCCN2C(=O)[C@H](CCCCN)NC(=O)[C@H](C)NC(=O)[C@@H]2CCCN2C(=O)[C@H](CC(=O)O)NC(=O)[C@H](CC(N)=O)NC(=O)[C@H](Cc2c[nH]cn2)NC(=O)[C@H](CO)NC(=O)[C@H](CC(C)C)NC(=O)[C@@H](NC(=O)[C@@H]2CCCN2)CSSC[C@@H](C(=O)N[C@@H](C)C(=O)O)NC1=O [Peptide-41] |  |  | 292 nM | 4250 nM |  |
|  | CC[C@H](C)[C@@H]1NC(=O)[C@@H]2CCCN2C(=O)[C@H](CCCCN)NC(=O)[C@H](C)NC(=O)[C@H](CC(C)C)NC(=O)[C@H](CC(=O)O)NC(=O)[C@H](Cc2ccc(O)cc2)NC(=O)[C@H](Cc2c[nH]cn2)NC(=O)[C@H](CO)NC(=O)[C@H](CC(N)=O)NC(=O)[C@@H](NC(=O)[C@@H]2CCCN2)CSSC[C@@H](C(=O)N[C@H](C(=O)O)[C@@H](C)O)NC1=O [Peptide-43] |  |  | 186 nM | 4230 nM |  |
|  | CC[C@H](C)[C@@H]1NC(=O)[C@H](CC(=O)O)NC(=O)[C@H](Cc2ccccc2)NC(=O)[C@H](Cc2c[nH]cn2)NC(=O)[C@H](CO)NC(=O)[C@H](CC(N)=O)NC(=O)[C@@H](NC(=O)[C@@H]2CCCN2)CSSC[C@@H](C(=O)N[C@@H](CC(C)C)C(=O)O)NC(=O)[C@H]([C@@H](C)CC)NC(=O)[C@@H]2CCCN2C(=O)[C@H](CCCCN)NC(=O)[C@H](C)NC1=O [Peptide-44] |  |  | 341 nM | 6570 nM |  |
|  | CC[C@H](C)[C@@H]1NC(=O)[C@@H]2CCCN2C(=O)[C@H](CCCCN)NC(=O)[C@H](C)NC(=O)[C@@H]2CCCN2C(=O)[C@H](CC(=O)O)NC(=O)[C@H](CC(N)=O)NC(=O)[C@H](Cc2c[nH]cn2)NC(=O)[C@H](Cc2ccc(O)cc2)NC(=O)[C@H](C)NC(=O)[C@@H](NC(=O)[C@@H]2CCCN2)CSSC[C@@H](C(=O)N[C@@H](CO)C(=O)O)NC1=O [Peptide-45, PCAYHNDPAKPICS] |  |  | 10.3 nM | 543 nM | more potent peptide masks |
|  | CC[C@H](C)[C@@H]1NC(=O)[C@@H]2CCCN2C(=O)[C@H](CCCCN)NC(=O)[C@H](C)NC(=O)[C@@H]2CCCN2C(=O)[C@H](CC(=O)O)NC(=O)[C@H](Cc2ccccc2)NC(=O)[C@H](Cc2c[nH]cn2)NC(=O)[C@H](Cc2ccccc2)NC(=O)[C@H](CC(C)C)NC(=O)[C@@H](NC(=O)[C@@H]2CCCN2)CSSC[C@@H](C(=O)N[C@@H](CO)C(=O)O)NC1=O [Peptide-46, PCLFHFDPAKPICS] |  |  | 4.9 nM | 300 nM | more potent peptide masks |
